We go through six compounds from US4110460A, “2,3-Dihydro-imidazo[2,1-b]-thiazole derivatives and applications thereof” (Metabio, priority 1976, dated 1978).

The test system of data set [1] is hyperthermia induced in rats by subcutaneous injection of barm. Description: antipyretic activity, barm (yeast)-induced hyperthermia in rats. It counts as in vivo, rat. The note with it: po, intragastric, 17 hours after yeast injection, lowest active dosage, read-out: active from a dosage of (antipyretic activity). The procedure:
Hyperthermia is induced in rats by subcutaneous injection of barm, at a dosage of 4 g/kg.
The treatments are administered by the intragastric route, 17 hours after yeast injection.
The change in rectal temperature of the rats is compared, as a function of time, in the absolute reference animals, the "barm" reference animals and the treated animals.

Data set [2] deals with cotton-induced granuloma in rat. Put plainly: cotton-induced granuloma in rat. Format: in vivo. The following applies: male rats, oral during 7 days. The procedure:
The test is conducted according to the technique of […]. Am. Chem. Soc., 80, 3161, 1958) The male rats are distributed in randomized groups, slightly anesthetized and depilated in the dorsal area. An incision of about 1 cm is effected along the spine, and 2 pellets of carded cotton weighing each 20 mg are placed under the skin on both sides of the neck. The treatments are administered orally during 7 days, as suspensions in BT medium. The reference group is administered BT medium alone, under the same experimental conditions. 24 hours after the last ingestion, the pellets are excised and weighed.

For data set [3], the system named is writhing induced by intraperitoneal acetic acid in mice. Description: acetic acid writhing test in mice (analgesic activity). It counts as in vivo, mouse. Set-up: key to Analgesic activity (writhing test): rated, according to its intensity, with from 1 + to 4 +'s, with from 1 + to 4 +'s; ++++: rated, according to its intensity, with from 1 + to 4 +'s. The following applies: for Analgesic activity (writhing test): oral, mice, 0.5 hour prior to i.p. acetic acid, 15 minutes recording, rated + to ++++. The protocol: The analgesic activity was determined according to the conventional testing methods for said activity: the writhing test. Mice are given a single intraperitoneal injection of 0.2 ml 6°/129 acetic acid.
The test compound is administered orally 0.5 hour prior to the acetic acid injection. The number of characteristic writhing movements inducted by pain is recorded during the 15 minutes which follow the acetic acid injection.
The analgesic action of the various derivatives is rated, according to its intensity, with from 1 + to 4 +'s in the following table.
In general terms: An intraperitoneal irritant provokes the stretching counted in writhing tests.

The next data set concerns fasting rats. Put plainly: ulcerogenic activity in fasting rats. It counts as in vivo, rat.
The test system of another data set is male mice. Put plainly: acute oral toxicity in male mice. Format: in vivo. The procedure:
(§1) Acute toxicity was determined orally in male mice.

For data set [4], the system named is ultra-violet induced erythema in guinea-pigs. Put plainly: ultra-violet induced erythema in guinea-pigs. The following applies: intragastric. Format: in vivo, guinea-pig. The protocol:
Erythema is induced in depilated guinea-pigs placed at a distance of 25 cm from a 300 watt mercury vapor lamp.
The back of the guinea-pigs is covered with a coat of flexible rubber in which 3 circular perforations 8 mm in diameter are effected. Blind evaluation of the erythema is carried out, 2 hrs and 5 hrs after irradiation.
The treatment is administered by the intragastric route, under a volume of 5 ml/kg.

Data set [5] deals with carrageenin-induced edema of the rear limb of rats. Description: carrageenin-induced edema of the rear limb of rats (anti-inflammatory activity). The note with it: for Anti-inflammatory activity (carrageenin-induced edema): oral, rats, after 1.5 hour, rated + to ++++; for ED30 / ED40: carrageenin-induced edema in rat; for ED30: read-out: AD30; for ED40: read-out: AD40. Format: in vivo, rat. Set-up: Anti-inflammatory activity (carrageenin-induced edema): key to the marks not given beside the values. From the text: The anti-inflammatory action of the various compounds is rated, according to its intensity, with 1 + to 4 +'s in the following Table.
1. Carrageenin-induced edema in rat
Background: Carrageenan injected into the paw causes an acute inflammation.

Data set [6] deals with Freund-adjuvant induced arthritis in rats. Put plainly: Freund-adjuvant induced arthritis in rats. Format: in vivo. The note with it: Rattus norvegicus, limb volume, X-ray examination, weight curve, lowest active dosage, read-out: inhibiting activity on the development of adjuvant-induced polyarthritis, apparent from a dosage of. The procedure: Injection of Mycobacterium butyricum is carried out at the level of the hind limb of rats, and produces as early as the 10th day an arthritis which develops rapidly.
The inhibiting activity of the compound of Example 1 on the development of adjuvant-induced polyarthritis in rats is apparent from a dosage of 5 mg/kg.

The test system of the next data set is rats. Description: chronic toxicity tests in rats. It counts as in vivo, rat. The following applies: 40 mg/kg/day.
Data set [7] can be described thus: acute oral toxicity in male mice. It counts as in vivo. The note with it: mouse, in vivo, po, male mice; read-out: LD50 per os. The procedure:
as §1

Regarding `COc1ccc(-c2nc3n(c2-c2ccc(OC)cc2)CCS3)cc1` [Example 1, 2,3-dihydro-5,6-(bis-paramethoxyphenyl)-imidazo[2,1-b]-thiazole], the minimal effective dose in [1] is 3.38 mg/kg. In addition, in data set [2], the “activity relative to phenylbutazone (granuloma)” value is reported as “twice as active as phenylbutazone” and the “inhibition of the development of a granuloma” value is reported as “inhibits the development of a granuloma”. Moreover, in [3] (acetic acid writhing test in mice, in words), the “analgesic activity on visceral pain” value was “highly marked analgesic activity on visceral pain”. Also, the “Analgesic activity (writhing test)” value in data set [3] is “++++”. Further, the ulcerogenic activity entry in the data set with fasting rats was “low ulcerogenic activity found in fasting rats is equivalent to that of the reference materials”. Moreover, the LD50 per os in the data set with male mice (mouse, in vivo, po) was > 4,200 mg/kg. For the same compound, in data set [4], the “protective activity, dependence on dosage (erythema)” value is recorded as “proportional to the dosage administered”. The “protective activity still maintained ... hours after administration” value in data set [4] (duration) is at least 6 h. Moreover, the “protective activity highly marked as early as the first ... hours” value in [4] (onset) is at most 3 h. Also, the “Anti-inflammatory activity (carrageenin-induced edema)” value (“Anti-inflammatory activity” below) in [5] is listed as “++++”. Besides, in [5] (po, 1.5 h), the ED30 came out at 5.22 mg/kg and the ED40 turned out to be 7.78 mg/kg. Further, the minimal effective dose in data set [5] (po, 1.5 h, rat, lowest active dosage, read-out: active from a dosage of (carrageenin-induced edema)) stood at 3.38 mg/kg. For the same compound, the minimal effective dose in [6] amounted to 5 mg/kg. In addition, the “major side-effects (chronic toxicity)” value in the data set on rats is reported as “failed to provide evidence of any major side-effects”.
For `COc1ccc(-c2nc3n(c2-c2ccc(OC)cc2)CC(C)S3)cc1` (centres unmarked) [Example 3, 2-methyl-2,3-dihydro-5,6-(bis-paramethoxyphenyl)-imidazo[2,1-b]-thiazole], the “Analgesic activity (writhing test)” value in data set [3] was “+++”. For the same compound, in data set [7], the LD50 (commonly the dose expected to kill half of the subjects tested) is above 2000 mg/kg. The “Anti-inflammatory activity” value in [5] was “+++”.
In the case of `COc1ccc(-c2nc3n(c2-c2ccc(OC)cc2)C(C)CS3)cc1` (centres unmarked) [Example 4, 3-methyl-2,3-dihydro-5,6-(bis-paramethoxyphenyl)-imidazo[2,1-b]-thiazole], the “Analgesic activity (writhing test)” value in [3] is “+++”. Further, the LD50 in [7] is above 2000 mg/kg.
As to `COc1ccc(-c2nc3n(c2-c2ccc(OC)cc2)C(C)C(C)S3)cc1` (centres unmarked) [Example 7, 2,3-dimethyl-2,3-dihydro-5,6-bis(p-methoxyphenyl)-imidazo[2,1-b]-thiazole], the “Analgesic activity (writhing test)” value in data set [3] is on record as “++++”. Also, in data set [5], the “Anti-inflammatory activity” value was “+++”.
Consider `COc1ccc(-c2nc3n(c2-c2ccc(OC)cc2)CCS3)cc1` [Example 22], for which the LD50 per os in the data set on male mice (oral, male mice) was > 2,000 mg/kg.
For the compound `CCCCC1C(=O)N(c2ccccc2)N(c2ccccc2)C1=O` [Phenylbutazone, reference compound], in [5] (po, 1.5 h), the ED30 was found to be 16.1 mg/kg and the ED40 amounted to 27.4 mg/kg.
